The values that follow come from US20090240049A1, “Purification of air sensitive steroids” (priority 2008, published 2009).

Some results are limits rather than exact numbers.

A short description of this series: Stability of Budesonide on storage, 21-aldehyde and Budesonide content by HPLC. Format: physicochemical. Conditions: for Budenoside HPLC Area % / 21 Aldehyde HPLC Area %: double plastic containers. Here is the method:
The amount of air-sensitive steroid and/or its 21 aldehyde impurity were determined using HPLC. Common HPLC methods for these steroids and their 21-aldehyde impurities may be found in various monographs see for example for Budesonide and its 21-aldehyde impurity a HPLC method is reported in USP31-NF26, page 1565 (detection limit 0.02%), for Fluocinolone acetonide a HPLC method in European Pharmacopoeia (EP) 6.0, page 1915, and for Methylprednisolone a HPLC method in European Pharmacopoeia (EP) 6.0, page 2393.
Budenoside from three production lots prepared in stainless steel reactors was compared to a lot of Budenoside produced in such a reactor and purified with cysteine according to example 5. All samples were stored in double plastic containers. The samples that were not treated with cysteine were kept at a temperature of 25±2° C. and relative humidity of 60%. The sample treated with cysteine was stored at a temperature that varied from about 0° C. to about 40° C. with no humidity control. As is shown in the table below the amount of the 21-aldehyde impurity in the Budenoside purified according to example 5 is less than 0.07% even after 6 years of storage. The aldehyde content of all samples was measured by HPLC.

Setting [1] is: production lot 1 of 3 (c1-c2), not treated with cysteine, 25±2° C., 60% relative humidity, 2 years.
[2] abbreviates: production lot 1 of 3 (c1-c2), not treated with cysteine, 25±2° C., 60% relative humidity, 5 years.
The mark [3] stands for this setting: production lot 2 of 3 (c3-c4), not treated with cysteine, 25±2° C., 60% relative humidity, 2 years.
The mark [4] stands for this setting: production lot 2 of 3 (c3-c4), not treated with cysteine, 25±2° C., 60% relative humidity, 5 years.
Where [5] appears, read: production lot 3 of 3 (c5-c6), not treated with cysteine, 25±2° C., 60% relative humidity, 2 years.
The mark [6] stands for this setting: production lot 3 of 3 (c5-c6), not treated with cysteine, 25±2° C., 60% relative humidity, 5 years.
[7] abbreviates: lot purified with cysteine, stored at about 0° C. to about 40° C., no humidity control, 6 years.

Turning to `CCCC1O[C@@H]2C[C@H]3[C@@H]4CCC5=CC(=O)C=C[C@]5(C)[C@H]4[C@@H](O)C[C@]3(C)[C@]2(C(=O)CO)O1` (stereo partly shown) [Budenoside, Budesonide], the “Budenoside HPLC Area %” value runs as follows: (production lot 1 of 3 (c1-c2), not treated with cysteine, 25±2° C., 60% relative humidity, 0 years) 99.0 HPLC Area %; (production lot 1 of 3 (c1-c2), not treated with cysteine, 25±2° C., 60% relative humidity, 1 year) 98.8 HPLC Area %; under setting [1], 98.7 HPLC Area %; under setting [2], 98.4 HPLC Area %; (production lot 2 of 3 (c3-c4), not treated with cysteine, 25±2° C., 60% relative humidity, 0 years) 99.4 HPLC Area %; (production lot 2 of 3 (c3-c4), not treated with cysteine, 25±2° C., 60% relative humidity, 1 year) 98.9 HPLC Area %. Besides, the “Budenoside HPLC Area %” value under setting [3] stood at 98.5 HPLC Area %; the “Budenoside HPLC Area %” value under setting [4] is listed as 97.8 HPLC Area %; the “Budenoside HPLC Area %” value (production lot 3 of 3 (c5-c6), not treated with cysteine, 25±2° C., 60% relative humidity, 0 years) was 99.2 HPLC Area %; the “Budenoside HPLC Area %” value (production lot 3 of 3 (c5-c6), not treated with cysteine, 25±2° C., 60% relative humidity, 1 year) stood at 99.0 HPLC Area %; the “Budenoside HPLC Area %” value under setting [5] is reported as 99.1 HPLC Area %; the “Budenoside HPLC Area %” value under setting [6] is 98.2 HPLC Area %. In addition, the “21 Aldehyde HPLC Area %” value is recorded as 0.1 HPLC Area % under setting [1]; 0.2 HPLC Area % under setting [2]; 0.6 HPLC Area % under setting [3]; 0.9 HPLC Area % under setting [4]; less than 0.1 HPLC Area % under setting [5]; less than 0.2 HPLC Area % under setting [6].

With `CCCC1O[C@@H]2C[C@H]3[C@@H]4CCC5=CC(=O)C=C[C@]5(C)[C@H]4[C@@H](O)C[C@]3(C)[C@]2(C(=O)CO)O1` (stereo partly shown) [Budesonide], the “amount of the 21-aldehyde impurity” value (after 6 years of storage at about 0° C. to about 40° C., no humidity control) is “less than 0.07%”. Also, for the setting “lot purified with cysteine, stored at about 0° C. to about 40° C., no humidity control, 0 years”, the “Budenoside HPLC Area %” value was 99.76 HPLC Area %. In addition, under setting [7], the “21 Aldehyde HPLC Area %” value came to 0.02 HPLC Area % and the “Budenoside HPLC Area %” value came to 99.61 HPLC Area %.
